Source: paper PMC6874179, “Development of Macrocycle Kinase Inhibitors for ALK2 Using Fibrodysplasia Ossificans Progressiva‐Derived Endothelial Cells” (JBMR Plus, 2019)

Tests used:
Test in all cases: Proqinase Kinase profiling
Type in all cases: biochemical
Details in all cases: read-out: % inhibition at 100nM
MAPK11 = biological target: T1, MAPK11 (Homo sapiens, UniProt Q15759)
T1 construct: purchased DiscoverX

STK33 = biological target: T2, STK33 (Homo sapiens, UniProt Q9BYT3)
T2 construct: purchased DiscoverX

PRKAA1 = biological target: T3, PRKAA1 (Homo sapiens, UniProt Q13131)
T3 construct: purchased DiscoverX

EPHB4 = biological target: T4, EPHB4 (Homo sapiens, UniProt P54760)
T4 construct: purchased DiscoverX

MAP3K11 = biological target: T5, MAP3K11 (Homo sapiens, UniProt Q16584)
T5 construct: purchased DiscoverX

LRRK2_I2020T = biological target: T6, LRRK2_I2020T (Homo sapiens, UniProt Q5S007, I2020T)
T6 construct: purchased DiscoverX

SRPK2 = biological target: T7, SRPK2 (Homo sapiens, UniProt P78362)
T7 construct: purchased DiscoverX

CDK6_cyclinD1 = biological target: T8, CDK6_cyclinD1 (Homo sapiens, UniProt Q00534)
T8 construct: purchased DiscoverX

CDK9_cyclinK = biological target: T9, CDK9_cyclinK (Homo sapiens, UniProt P50750)
T9 construct: purchased DiscoverX

KIT_V654A = biological target: T10, KIT_V654A (Homo sapiens, UniProt P10721, V654A)
T10 construct: purchased DiscoverX

PBK = biological target: T11, PBK (Homo sapiens, UniProt Q96KB5)
T11 construct: purchased DiscoverX

FYN = biological target: T12, FYN (Homo sapiens, UniProt P06241)
T12 construct: purchased DiscoverX

MATK = biological target: T13, MATK (Homo sapiens, UniProt P42679)
T13 construct: purchased DiscoverX

MET_D1228N = biological target: T14, MET_D1228N (Homo sapiens, UniProt P08581, D1228N)
T14 construct: purchased DiscoverX

PAK1 = biological target: T15, PAK1 (Homo sapiens, UniProt Q13153)
T15 construct: purchased DiscoverX

TEK_Y1108F = biological target: T16, TEK_Y1108F (Homo sapiens, UniProt Q02763, Y1108F)
T16 construct: purchased DiscoverX

ACVR2A = biological target: T17, ACVR2A (Homo sapiens, UniProt P27037)
T17 construct: T7 phage fusion (or DNA tag for qPCR if made in HEK-293); purchased DiscoverX; host or cells: E. coli (T7 phage) or HEK-293

NTRK1 = biological target: T18, NTRK1 (Homo sapiens, UniProt P04629)
T18 construct: purchased DiscoverX

WNK3 = biological target: T19, WNK3 (Homo sapiens, UniProt Q9BYP7)
T19 construct: purchased DiscoverX

PAK3 = biological target: T20, PAK3 (Homo sapiens, UniProt O75914)
T20 construct: purchased DiscoverX

TXK = biological target: T21, TXK (Homo sapiens, UniProt P42681)
T21 construct: purchased DiscoverX

BMX = biological target: T22, BMX (Homo sapiens, UniProt P51813)
T22 construct: purchased DiscoverX

EGFR_G719C = biological target: T23, EGFR_G719C (Homo sapiens, UniProt P00533, G719C)
T23 construct: purchased DiscoverX

PHKG2 = biological target: T24, PHKG2 (Homo sapiens, UniProt P15735)
T24 construct: purchased DiscoverX

NEK1 = biological target: T25, NEK1 (Homo sapiens, UniProt Q96PY6)
T25 construct: purchased DiscoverX

MAP3K2 = biological target: T26, MAP3K2 (Homo sapiens, UniProt Q9Y2U5)
T26 construct: purchased DiscoverX

ACVR2B = biological target: T27, ACVR2B (Homo sapiens, UniProt Q13705)
T27 construct: T7 phage fusion (or DNA tag for qPCR if made in HEK-293); purchased DiscoverX; host or cells: E. coli (T7 phage) or HEK-293

RAF1 = biological target: T28, RAF1 (Homo sapiens, UniProt P04049)
T28 construct: purchased DiscoverX

CSNK1G2 = biological target: T29, CSNK1G2 (Homo sapiens, UniProt P78368)
T29 construct: purchased DiscoverX

EPHB3 = biological target: T30, EPHB3 (Homo sapiens, UniProt P54753)
T30 construct: purchased DiscoverX

ABL1_Y253F = biological target: T31, ABL1_Y253F (Homo sapiens, UniProt P00519, Y253F)
T31 construct: purchased DiscoverX

RET_R749T = biological target: T32, RET_R749T (Homo sapiens, UniProt P07949, R749T)
T32 construct: purchased DiscoverX

DAPK2 = biological target: T33, DAPK2 (Homo sapiens, UniProt Q9UIK4)
T33 construct: purchased DiscoverX

TEC = biological target: T34, TEC (Homo sapiens, UniProt P42680)
T34 construct: purchased DiscoverX

CDK2_cyclinE = biological target: T35, CDK2_cyclinE (Homo sapiens, UniProt P24941)
T35 construct: purchased DiscoverX

PRKG2 = biological target: T36, PRKG2 (Homo sapiens, UniProt Q13237)
T36 construct: purchased DiscoverX

ALK_L1196M = biological target: T37, ALK_L1196M (Homo sapiens, UniProt Q9UM73, L1196M)
T37 construct: purchased DiscoverX

ROS1 = biological target: T38, ROS1 (Homo sapiens, UniProt P08922)
T38 construct: purchased DiscoverX

NEK11 = biological target: T39, NEK11 (Homo sapiens, UniProt Q8NG66)
T39 construct: purchased DiscoverX

AURKC = biological target: T40, AURKC (Homo sapiens, UniProt Q9UQB9)
T40 construct: purchased DiscoverX

PDGFRB = biological target: T41, PDGFRB (Homo sapiens, UniProt P09619)
T41 construct: purchased DiscoverX

TLK1 = biological target: T42, TLK1 (Homo sapiens, UniProt Q9UKI8)
T42 construct: purchased DiscoverX

T17 sequence (P27037 20-513): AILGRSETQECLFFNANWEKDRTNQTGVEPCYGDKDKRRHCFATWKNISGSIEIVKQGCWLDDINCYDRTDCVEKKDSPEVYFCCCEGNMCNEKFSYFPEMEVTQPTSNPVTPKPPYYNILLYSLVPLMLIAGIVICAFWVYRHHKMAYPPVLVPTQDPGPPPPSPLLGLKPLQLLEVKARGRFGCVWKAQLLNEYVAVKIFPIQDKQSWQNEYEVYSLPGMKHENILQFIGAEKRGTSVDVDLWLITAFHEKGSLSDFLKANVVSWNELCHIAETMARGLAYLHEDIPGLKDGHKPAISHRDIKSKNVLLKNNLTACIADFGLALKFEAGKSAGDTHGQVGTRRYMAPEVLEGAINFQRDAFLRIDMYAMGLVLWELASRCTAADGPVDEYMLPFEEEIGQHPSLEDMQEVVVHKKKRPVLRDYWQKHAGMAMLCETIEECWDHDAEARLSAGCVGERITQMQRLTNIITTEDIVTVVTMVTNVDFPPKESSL
T29 sequence (P78368 whole entry): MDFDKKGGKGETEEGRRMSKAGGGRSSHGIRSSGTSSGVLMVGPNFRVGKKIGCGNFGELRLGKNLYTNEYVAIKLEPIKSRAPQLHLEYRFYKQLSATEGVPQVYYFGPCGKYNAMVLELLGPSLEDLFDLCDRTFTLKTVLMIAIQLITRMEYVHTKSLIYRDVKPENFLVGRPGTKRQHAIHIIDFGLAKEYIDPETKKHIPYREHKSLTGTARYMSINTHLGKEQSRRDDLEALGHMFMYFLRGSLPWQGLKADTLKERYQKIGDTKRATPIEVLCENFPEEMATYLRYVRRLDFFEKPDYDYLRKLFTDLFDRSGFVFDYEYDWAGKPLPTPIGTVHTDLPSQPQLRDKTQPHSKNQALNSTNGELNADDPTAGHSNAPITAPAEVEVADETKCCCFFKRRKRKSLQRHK
T36 sequence (Q13237 whole entry): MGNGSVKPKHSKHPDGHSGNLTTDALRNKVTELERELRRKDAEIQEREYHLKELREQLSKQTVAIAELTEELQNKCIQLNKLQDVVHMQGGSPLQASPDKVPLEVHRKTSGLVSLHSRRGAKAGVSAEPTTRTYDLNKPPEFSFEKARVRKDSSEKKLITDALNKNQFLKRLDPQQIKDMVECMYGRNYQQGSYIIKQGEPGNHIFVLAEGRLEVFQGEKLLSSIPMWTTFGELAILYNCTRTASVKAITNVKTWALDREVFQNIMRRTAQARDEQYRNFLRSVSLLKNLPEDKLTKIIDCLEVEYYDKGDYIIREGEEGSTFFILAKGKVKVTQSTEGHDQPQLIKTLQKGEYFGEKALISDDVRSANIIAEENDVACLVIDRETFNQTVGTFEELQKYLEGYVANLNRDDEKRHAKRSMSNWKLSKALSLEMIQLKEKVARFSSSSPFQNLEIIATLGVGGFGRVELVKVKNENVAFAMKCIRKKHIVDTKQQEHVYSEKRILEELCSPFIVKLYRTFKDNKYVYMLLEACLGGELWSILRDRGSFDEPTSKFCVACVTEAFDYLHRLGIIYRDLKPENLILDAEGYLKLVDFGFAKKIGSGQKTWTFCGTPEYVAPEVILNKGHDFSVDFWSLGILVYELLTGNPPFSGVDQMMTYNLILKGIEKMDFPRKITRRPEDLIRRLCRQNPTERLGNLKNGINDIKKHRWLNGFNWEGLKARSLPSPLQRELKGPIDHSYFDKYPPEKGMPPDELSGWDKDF
T24 sequence (P15735 whole entry): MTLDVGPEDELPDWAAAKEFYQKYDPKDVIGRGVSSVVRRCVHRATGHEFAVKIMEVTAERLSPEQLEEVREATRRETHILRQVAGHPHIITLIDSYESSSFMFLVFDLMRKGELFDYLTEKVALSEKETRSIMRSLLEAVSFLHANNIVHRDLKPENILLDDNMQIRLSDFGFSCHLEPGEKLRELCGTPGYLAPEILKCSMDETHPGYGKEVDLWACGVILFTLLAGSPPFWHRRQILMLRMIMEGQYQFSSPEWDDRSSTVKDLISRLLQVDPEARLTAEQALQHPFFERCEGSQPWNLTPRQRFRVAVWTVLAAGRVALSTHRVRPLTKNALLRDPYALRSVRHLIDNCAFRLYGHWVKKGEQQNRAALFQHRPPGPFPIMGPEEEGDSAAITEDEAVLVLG
T39 sequence (Q8NG66 whole entry): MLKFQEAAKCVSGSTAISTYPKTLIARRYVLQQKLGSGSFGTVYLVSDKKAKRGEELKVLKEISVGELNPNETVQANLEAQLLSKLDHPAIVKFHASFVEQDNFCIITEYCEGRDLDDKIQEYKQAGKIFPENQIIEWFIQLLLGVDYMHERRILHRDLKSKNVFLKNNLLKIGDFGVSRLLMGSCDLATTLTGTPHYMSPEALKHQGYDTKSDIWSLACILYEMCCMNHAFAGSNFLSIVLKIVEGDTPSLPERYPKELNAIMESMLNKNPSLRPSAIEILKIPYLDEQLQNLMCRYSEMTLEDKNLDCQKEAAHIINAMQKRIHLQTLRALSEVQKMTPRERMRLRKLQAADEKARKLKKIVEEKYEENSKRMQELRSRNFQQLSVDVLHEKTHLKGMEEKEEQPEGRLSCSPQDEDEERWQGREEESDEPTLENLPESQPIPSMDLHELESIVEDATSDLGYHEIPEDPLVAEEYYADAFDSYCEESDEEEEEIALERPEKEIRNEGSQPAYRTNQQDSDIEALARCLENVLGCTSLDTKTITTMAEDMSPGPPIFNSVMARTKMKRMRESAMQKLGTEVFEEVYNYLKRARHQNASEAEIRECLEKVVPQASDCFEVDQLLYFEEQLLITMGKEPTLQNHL
T2 sequence (Q9BYT3 whole entry): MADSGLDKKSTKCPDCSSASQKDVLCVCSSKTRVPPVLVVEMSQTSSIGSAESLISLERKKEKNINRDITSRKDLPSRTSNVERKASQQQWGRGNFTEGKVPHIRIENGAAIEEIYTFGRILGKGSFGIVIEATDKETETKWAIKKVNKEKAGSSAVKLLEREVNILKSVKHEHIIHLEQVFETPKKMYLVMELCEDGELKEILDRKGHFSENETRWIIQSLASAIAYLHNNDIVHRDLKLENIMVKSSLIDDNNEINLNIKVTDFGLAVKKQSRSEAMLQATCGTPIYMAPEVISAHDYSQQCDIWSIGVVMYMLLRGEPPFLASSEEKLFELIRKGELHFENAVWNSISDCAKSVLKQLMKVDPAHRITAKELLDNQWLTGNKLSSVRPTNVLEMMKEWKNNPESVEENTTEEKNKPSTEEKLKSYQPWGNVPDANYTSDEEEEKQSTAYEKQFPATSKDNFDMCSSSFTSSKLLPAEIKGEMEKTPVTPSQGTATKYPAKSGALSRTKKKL
T12 sequence (P06241 whole entry): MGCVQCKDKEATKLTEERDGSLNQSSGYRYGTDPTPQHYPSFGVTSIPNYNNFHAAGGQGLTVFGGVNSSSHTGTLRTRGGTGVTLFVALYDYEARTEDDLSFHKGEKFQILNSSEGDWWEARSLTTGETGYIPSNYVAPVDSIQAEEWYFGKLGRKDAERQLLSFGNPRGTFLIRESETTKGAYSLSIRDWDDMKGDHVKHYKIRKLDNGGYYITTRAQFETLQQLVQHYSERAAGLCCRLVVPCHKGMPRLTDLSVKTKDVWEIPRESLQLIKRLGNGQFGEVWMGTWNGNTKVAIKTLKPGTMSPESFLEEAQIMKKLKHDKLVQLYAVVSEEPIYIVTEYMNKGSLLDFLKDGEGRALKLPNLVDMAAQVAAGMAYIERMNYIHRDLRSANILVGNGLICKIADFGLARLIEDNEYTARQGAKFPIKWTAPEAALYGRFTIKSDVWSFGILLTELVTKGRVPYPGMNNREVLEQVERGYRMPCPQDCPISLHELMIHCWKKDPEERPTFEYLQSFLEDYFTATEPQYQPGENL
T25 sequence (Q96PY6 whole entry): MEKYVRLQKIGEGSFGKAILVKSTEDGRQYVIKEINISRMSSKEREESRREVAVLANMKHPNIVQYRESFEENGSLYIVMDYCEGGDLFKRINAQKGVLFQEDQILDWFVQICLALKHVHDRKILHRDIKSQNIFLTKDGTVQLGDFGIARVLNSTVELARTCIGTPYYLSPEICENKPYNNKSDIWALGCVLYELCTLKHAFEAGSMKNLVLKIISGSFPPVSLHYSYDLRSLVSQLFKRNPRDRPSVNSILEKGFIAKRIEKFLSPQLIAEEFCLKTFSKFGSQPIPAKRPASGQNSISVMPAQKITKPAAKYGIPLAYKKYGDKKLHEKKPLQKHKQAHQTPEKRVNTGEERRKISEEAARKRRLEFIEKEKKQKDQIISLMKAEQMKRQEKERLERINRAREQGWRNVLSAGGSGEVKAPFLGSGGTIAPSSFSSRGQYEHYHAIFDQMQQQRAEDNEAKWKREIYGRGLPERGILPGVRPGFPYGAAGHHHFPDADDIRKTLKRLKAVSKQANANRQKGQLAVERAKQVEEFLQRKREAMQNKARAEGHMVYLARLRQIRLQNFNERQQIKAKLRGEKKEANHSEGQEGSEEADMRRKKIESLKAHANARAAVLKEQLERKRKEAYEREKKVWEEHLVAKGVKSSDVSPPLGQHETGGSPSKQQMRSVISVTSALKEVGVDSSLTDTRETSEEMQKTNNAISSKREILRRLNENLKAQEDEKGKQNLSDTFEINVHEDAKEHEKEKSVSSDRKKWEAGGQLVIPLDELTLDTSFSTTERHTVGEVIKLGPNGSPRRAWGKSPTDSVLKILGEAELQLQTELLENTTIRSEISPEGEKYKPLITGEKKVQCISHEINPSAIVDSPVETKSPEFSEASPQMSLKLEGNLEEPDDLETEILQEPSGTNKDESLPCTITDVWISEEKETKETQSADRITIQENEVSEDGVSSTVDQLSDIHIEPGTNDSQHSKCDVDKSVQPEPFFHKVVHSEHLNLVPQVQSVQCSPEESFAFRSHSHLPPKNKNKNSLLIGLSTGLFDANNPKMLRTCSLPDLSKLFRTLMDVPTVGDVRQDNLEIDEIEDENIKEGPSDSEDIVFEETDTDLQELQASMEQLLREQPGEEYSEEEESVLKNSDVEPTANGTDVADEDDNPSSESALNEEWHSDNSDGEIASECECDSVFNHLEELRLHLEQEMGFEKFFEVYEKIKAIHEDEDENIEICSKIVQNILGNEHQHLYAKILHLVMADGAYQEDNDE

SMILES: Clc1cc2cc(c1)-c1cnn3ccc(nc13)NCCOCCO2 [OD36]
- inhibition at 0.1 µM (MAPK11): 11%
- inhibition at 0.1 µM (STK33): -1%
- inhibition at 0.1 µM (PRKAA1): 21%
- inhibition at 0.1 µM (EPHB4): 6%
- inhibition at 0.1 µM (MAP3K11): 30%
- inhibition at 0.1 µM (LRRK2_I2020T): 49%
- inhibition at 0.1 µM (SRPK2): -2%
- inhibition at 0.1 µM (CDK6_cyclinD1): -5%
- inhibition at 0.1 µM (CDK9_cyclinK): 16%
- inhibition at 0.1 µM (KIT_V654A): 5%
- inhibition at 0.1 µM (PBK): 19%
- inhibition at 0.1 µM (FYN): 59%
- inhibition at 0.1 µM (MATK): 9%
- inhibition at 0.1 µM (MET_D1228N): 4%
- inhibition at 0.1 µM (PAK1): 18%
- inhibition at 0.1 µM (TEK_Y1108F): -27%
- inhibition at 0.1 µM (ACVR2A): 15%
- inhibition at 0.1 µM (NTRK1): 14%
- inhibition at 0.1 µM (WNK3): 5%
- inhibition at 0.1 µM (PAK3): 1%
- inhibition at 0.1 µM (TXK): 37%
- inhibition at 0.1 µM (BMX): 9%
- inhibition at 0.1 µM (EGFR_G719C): 19%
- inhibition at 0.1 µM (PHKG2): 1%
- inhibition at 0.1 µM (NEK1): 14%
- inhibition at 0.1 µM (MAP3K2): 7%
- inhibition at 0.1 µM (ACVR2B): 90%
- inhibition at 0.1 µM (RAF1): 2%
- inhibition at 0.1 µM (CSNK1G2): -3%
- inhibition at 0.1 µM (EPHB3): 1%
- inhibition at 0.1 µM (ABL1_Y253F): 3%
- inhibition at 0.1 µM (RET_R749T): 30%
- inhibition at 0.1 µM (DAPK2): 17%
- inhibition at 0.1 µM (TEC): 6%
- inhibition at 0.1 µM (CDK2_cyclinE): 7%
- inhibition at 0.1 µM (PRKG2): 14%
- inhibition at 0.1 µM (ALK_L1196M): -7%
- inhibition at 0.1 µM (ROS1): 7%
- inhibition at 0.1 µM (NEK11): 4%
- inhibition at 0.1 µM (AURKC): 13%
- inhibition at 0.1 µM (PDGFRB): 57%
- inhibition at 0.1 µM (TLK1): 17%

SMILES: Cc1cc2cc(c1)-c1cnn3ccc(nc13)NCCNC(=O)CCN(C)C2 [OD52]
- inhibition at 0.1 µM (MAPK11): -5%
- inhibition at 0.1 µM (STK33): -13%
- inhibition at 0.1 µM (PRKAA1): -11%
- inhibition at 0.1 µM (EPHB4): -25%
- inhibition at 0.1 µM (MAP3K11): 14%
- inhibition at 0.1 µM (LRRK2_I2020T): 22%
- inhibition at 0.1 µM (SRPK2): -16%
- inhibition at 0.1 µM (CDK6_cyclinD1): 2%
- inhibition at 0.1 µM (CDK9_cyclinK): -7%
- inhibition at 0.1 µM (KIT_V654A): -9%
- inhibition at 0.1 µM (PBK): -5%
- inhibition at 0.1 µM (FYN): 6%
- inhibition at 0.1 µM (MATK): -9%
- inhibition at 0.1 µM (MET_D1228N): 6%
- inhibition at 0.1 µM (PAK1): -1%
- inhibition at 0.1 µM (TEK_Y1108F): -21%
- inhibition at 0.1 µM (ACVR2A): 14%
- inhibition at 0.1 µM (NTRK1): 29%
- inhibition at 0.1 µM (WNK3): -4%
- inhibition at 0.1 µM (PAK3): -15%
- inhibition at 0.1 µM (TXK): 25%
- inhibition at 0.1 µM (BMX): -34%
- inhibition at 0.1 µM (EGFR_G719C): -31%
- inhibition at 0.1 µM (PHKG2): -10%
- inhibition at 0.1 µM (NEK1): -4%
- inhibition at 0.1 µM (MAP3K2): 14%
- inhibition at 0.1 µM (ACVR2B): 17%
- inhibition at 0.1 µM (RAF1): -1%
- inhibition at 0.1 µM (CSNK1G2): 4%
- inhibition at 0.1 µM (EPHB3): -8%
- inhibition at 0.1 µM (ABL1_Y253F): 7%
- inhibition at 0.1 µM (RET_R749T): 36%
- inhibition at 0.1 µM (DAPK2): -10%
- inhibition at 0.1 µM (TEC): 0%
- inhibition at 0.1 µM (CDK2_cyclinE): 5%
- inhibition at 0.1 µM (PRKG2): -10%
- inhibition at 0.1 µM (ALK_L1196M): -6%
- inhibition at 0.1 µM (ROS1): 5%
- inhibition at 0.1 µM (NEK11): 4%
- inhibition at 0.1 µM (AURKC): -11%
- inhibition at 0.1 µM (PDGFRB): 3%
- inhibition at 0.1 µM (TLK1): 16%
